Test system: anesthetized rats
Experiment: Blood pressure and left ventricular function of anesthetized rats
Type: in vivo, rat
Set-up: contractive pressure, change ratio: unit not given here
Method: All data were input into PowerLab/8Sp data acquisition and processing system via RM-6000 multi-channel polygraph, and recorded, analyzed and processed by PowerLab/8Sp.
The abdomen was opened 1.5 cm below xiphoid bone to isolate duodenum, a small incision was formed on the duodenum away from blood vessels by ophthalmic scissors, a catheter was inserted and the incision was fixed by suture for administration. After the end of operation and a further waiting period of 30 min, normal data were recorded once the indexes to be monitored were stable.
Test drugs were duodenally administered via the catheter, and the indexes were monitored 5, 15, 30, 60, 90 and 120 min after the administration. The change ratios of the indexes were calculated in accordance with the following formula, and were used for statistic analysis among groups.

[1] = 4.5 mg/kg duodenal, 120 min after administration
[2] = 4.5 mg/kg duodenal, before administration
[3] = 9 mg/kg duodenal, 5 min after administration
[4] = 9 mg/kg duodenal, 15 min after administration
[5] = 9 mg/kg duodenal, 30 min after administration
[6] = 9 mg/kg duodenal, 60 min after administration

Question: What does the source list for `CC1(C)C2CCC1(C)C(OC(=O)C(O)Cc1ccc(O)c(O)c1)C2` (stereo not drawn) [bornyl salvianate ester, bornyl β-(3,4-dihydroxylphenyl)-α-hydroxylpropionate ester]?
Answer: mean arterial pressure, change ratio (4.5 mg/kg duodenal, 90 min after administration): 5.62 ± 15.30; change-rate of left intraventricular pressure MAX [1]: 5512.7 ± 1250.1 mmHg/s; change-rate of left intraventricular pressure MAX, change ratio [1]: 3.6 ± 20.4; change-rate of left intraventricular pressure, -MAX [1]: −3995.2 ± 837.9 mm/Hg/s; change-rate of left intraventricular pressure, -MAX, change ratio [1]: −5.6 ± 14.3; contractive pressure [1]: 128.62 ± 28.30 mmHg; contractive pressure, change ratio [1]: −0.49 ± 12.28; diastolic pressure [1]: 72.46 ± 20.46 mmHg; diastolic pressure, change ratio [1]: 4.39 ± 16.80; heart rate [1]: 360.36 ± 51.93 beat/min; heart rate, change ratio [1]: 9.40 ± 6.30; left intraventricular pressure [1]: 129.15 ± 18.53 mmHg; left intraventricular pressure, change ratio [1]: 0.79 ± 7.76; mean arterial pressure [1]: 91.18 ± 22.76 mmHg; mean arterial pressure, change ratio [1]: 2.06 ± 14.37; change-rate of left intraventricular pressure MAX [2]: 5380.2 ± 913.7 mmHg/s; change-rate of left intraventricular pressure, -MAX [2]: −4246.1 ± 669.3 mm/Hg/s; contractive pressure [2]: 129.06 ± 22.13 mmHg; diastolic pressure [2]: 68.47 ± 11.97 mmHg; heart rate [2]: 329.43 ± 43.77 beat/min; left intraventricular pressure [2]: 128.68 ± 20.18 mmHg; mean arterial pressure [2]: 88.67 ± 14.74 mmHg; effect on the heart rate (in words) (4.5 mg/kg, 9 mg/kg and 18 mg/kg doses): no significant effects; −dp/dt (in words) (9 mg/kg and 18 mg/kg, significant at 60 and 120 min): exhibited a decrease tendency; change-rate of left intraventricular pressure MAX [3]: 5388.9 ± 1187.0 mmHg/s; change-rate of left intraventricular pressure MAX, change ratio [3]: −0.7 ± 6.7; change-rate of left intraventricular pressure, -MAX [3]: −3908.5 ± 1013.0 mm/Hg/s; change-rate of left intraventricular pressure, -MAX, change ratio [3]: 0.0 ± 11.2; contractive pressure [3]: 131.10 ± 24.38 mmHg; contractive pressure, change ratio [3]: −1.14 ± 6.68; diastolic pressure [3]: 68.02 ± 18.77 mmHg; diastolic pressure, change ratio [3]: −2.47 ± 10.80; heart rate [3]: 374.04 ± 47.60 beat/min; heart rate, change ratio [3]: 0.28 ± 7.83; left intraventricular pressure [3]: 128.87 ± 25.63 mmHg; left intraventricular pressure, change ratio [3]: −0.03 ± 8.26; mean arterial pressure [3]: 89.05 ± 20.26 mmHg; mean arterial pressure, change ratio [3]: −1.79 ± 8.69; change-rate of left intraventricular pressure MAX [4]: 5321.6 ± 1133.0 mmHg/s; change-rate of left intraventricular pressure MAX, change ratio [4]: −1.6 ± 7.4; change-rate of left intraventricular pressure, -MAX [4]: −3792.8 ± 979.5 mm/Hg/s; change-rate of left intraventricular pressure, -MAX, change ratio [4]: −2.9 ± 10.2; contractive pressure [4]: 127.85 ± 23.92 mmHg; contractive pressure, change ratio [4]: −3.57 ± 7.14; diastolic pressure [4]: 66.18 ± 19.00 mmHg; diastolic pressure, change ratio [4]: −5.33 ± 9.64; heart rate [4]: 374.93 ± 47.51 beat/min; heart rate, change ratio [4]: 0.48 ± 7.36; left intraventricular pressure [4]: 127.06 ± 25.57 mmHg; left intraventricular pressure, change ratio [4]: −1.37 ± 9.10; mean arterial pressure [4]: 86.74 ± 20.25 mmHg; mean arterial pressure, change ratio [4]: −4.42 ± 8.30; change-rate of left intraventricular pressure MAX [5]: 5179.1 ± 1270.9 mmHg/s; change-rate of left intraventricular pressure MAX, change ratio [5]: −5.0 ± 7.8; change-rate of left intraventricular pressure, -MAX [5]: −3696.8 ± 997.3 mm/Hg/s; change-rate of left intraventricular pressure, -MAX, change ratio [5]: −5.5 ± 10.8; contractive pressure [5]: 122.58 ± 23.46 mmHg; contractive pressure, change ratio [5]: −7.38 ± 8.66; diastolic pressure [5]: 62.90 ± 17.46 mmHg; diastolic pressure, change ratio [5]: −9.50 ± 10.75; heart rate [5]: 361.94 ± 43.56 beat/min; heart rate, change ratio [5]: −3.00 ± 5.83; left intraventricular pressure [5]: 123.59 ± 25.06 mmHg; left intraventricular pressure, change ratio [5]: −4.07 ± 8.57; mean arterial pressure [5]: 82.79 ± 18.98 mmHg; mean arterial pressure, change ratio [5]: −8.42 ± 9.56; change-rate of left intraventricular pressure MAX [6]: 4966.9 ± 1297.4 mmHg/s; change-rate of left intraventricular pressure MAX, change ratio [6]: −9.2 ± 10.0; change-rate of left intraventricular pressure, -MAX [6]: −3569.5 ± 857.8 mm/Hg/s; change-rate of left intraventricular pressure, -MAX, change ratio [6]: −8.3 ± 10.2; contractive pressure [6]: 115.46 ± 23.90 mmHg

— US8017786B2, “Substituted β-phenyl-α-hydroxy-propanoic acid, synthesis method and use thereof” (Northwest University, priority 2006, dated 2011)
